Molecular target: T1, KIAA1363 (Mus musculus, UniProt Q8BLF1)
T1 construct: with FP-Rh in brain and heart membrane proteome; from tissue; host or cells: brain and heart membrane proteome
T1 sequence (Q8BLF1 1-408): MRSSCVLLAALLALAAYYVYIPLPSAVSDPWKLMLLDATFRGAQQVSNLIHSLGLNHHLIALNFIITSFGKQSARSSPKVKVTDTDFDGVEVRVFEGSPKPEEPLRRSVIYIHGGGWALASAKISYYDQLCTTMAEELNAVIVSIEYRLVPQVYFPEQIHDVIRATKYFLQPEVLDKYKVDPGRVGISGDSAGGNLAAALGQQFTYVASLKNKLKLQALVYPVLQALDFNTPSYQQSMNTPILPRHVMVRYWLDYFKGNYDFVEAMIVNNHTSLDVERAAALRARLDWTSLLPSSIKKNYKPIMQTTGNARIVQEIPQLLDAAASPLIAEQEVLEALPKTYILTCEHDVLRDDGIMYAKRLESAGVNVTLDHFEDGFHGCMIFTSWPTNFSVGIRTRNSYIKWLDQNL
Test: Activity based protein profiling (proteome-wide selectivity screening, FP-Rh), KIAA1363
Format: biochemical
Conditions: Table 4; activity based protein profiling
Description: (§1) Enzyme targets such as FAAH, KIAA1363, and TGH are labeled at the left margin.

Compound	IC50 [nM]
O=C(O)c1cccc(-c2nnc(C(=O)CCCCCCc3ccccc3)o2)n1 [8g]	> 100000
O=C(CCCCCCc1ccccc1)c1ncc(-c2ccco2)o1 [7c]	> 100000
COC(=O)c1nc(C(=O)CCCCCCc2ccccc2)no1 [10h, Methyl 3-(7-Phenylheptanoyl)-1,2,4-oxadiazole-5-carboxylate]	> 100000
O=C(CCCCCCc1ccccc1)c1cccnn1 [13a, 7-Phenyl-1-(pyridazin-3-yl)-heptan-1-one]	> 100000
O=C(CCCCCCc1ccccc1)c1ncon1 [10a, 1-(1,2,4-Oxadiazol-3-yl)-7-phenylheptan-1-one]	> 100000
O=C(CCCCCCc1ccccc1)c1nnn(-c2ccccn2)n1 [15b, 7-Phenyl-1-(2-(pyridin-2-yl)-2H-tetrazol-5-yl)-heptan-1-one]	> 100000

The remaining lines, values ahead:

IC50 [nM]	Compound
> 100000	O=C(CCCCCCc1ccccc1)c1nccs1 [11a, 7-Phenyl-1-(thiazol-2-yl)-heptan-1-one]
25000	O=C(CCCCCCc1ccccc1)c1ncno1 [9a, 1-(1,2,4-Oxadiazol-5-yl)-7-phenylheptan-1-one]
40000	COC(=O)c1cccc(-c2noc(C(=O)CCCCCCc3ccccc3)n2)n1 [9f, Methyl 6-(5-(7-Phenylheptanoyl)-1,2,4-oxadiazol-3-yl)-picolinate]

Same assay, conditions: Table 4; ratio KIAA1363 IC50 / FAAH IC50 (fold selectivity for FAAH)

Compound	KIAA1363 selectivity (value in parentheses)
O=C(CCCCCCc1ccccc1)c1ncc(-c2ccco2)o1 [7c]	> 1250
COC(=O)c1nc(C(=O)CCCCCCc2ccccc2)no1 [10h, Methyl 3-(7-Phenylheptanoyl)-1,2,4-oxadiazole-5-carboxylate]	> 10000
O=C(CCCCCCc1ccccc1)c1cccnn1 [13a, 7-Phenyl-1-(pyridazin-3-yl)-heptan-1-one]	> 30
O=C(CCCCCCc1ccccc1)c1ncon1 [10a, 1-(1,2,4-Oxadiazol-3-yl)-7-phenylheptan-1-one]	> 200

The next lines start with the values.

KIAA1363 selectivity (value in parentheses)	Compound
6250	O=C(CCCCCCc1ccccc1)c1ncno1 [9a, 1-(1,2,4-Oxadiazol-5-yl)-7-phenylheptan-1-one]
13000	COC(=O)c1cccc(-c2noc(C(=O)CCCCCCc3ccccc3)n2)n1 [9f, Methyl 6-(5-(7-Phenylheptanoyl)-1,2,4-oxadiazol-3-yl)-picolinate]

Molecular target: T2, recombinant human fatty acid amide hydrolase (Homo sapiens, UniProt O00519)
T2 construct: The full-length human FAAH (hFAAH) was expressed in COS-7 cells as described; expressed in transfected cells; host or cells: COS-7
T2 sequence (O00519 1-579): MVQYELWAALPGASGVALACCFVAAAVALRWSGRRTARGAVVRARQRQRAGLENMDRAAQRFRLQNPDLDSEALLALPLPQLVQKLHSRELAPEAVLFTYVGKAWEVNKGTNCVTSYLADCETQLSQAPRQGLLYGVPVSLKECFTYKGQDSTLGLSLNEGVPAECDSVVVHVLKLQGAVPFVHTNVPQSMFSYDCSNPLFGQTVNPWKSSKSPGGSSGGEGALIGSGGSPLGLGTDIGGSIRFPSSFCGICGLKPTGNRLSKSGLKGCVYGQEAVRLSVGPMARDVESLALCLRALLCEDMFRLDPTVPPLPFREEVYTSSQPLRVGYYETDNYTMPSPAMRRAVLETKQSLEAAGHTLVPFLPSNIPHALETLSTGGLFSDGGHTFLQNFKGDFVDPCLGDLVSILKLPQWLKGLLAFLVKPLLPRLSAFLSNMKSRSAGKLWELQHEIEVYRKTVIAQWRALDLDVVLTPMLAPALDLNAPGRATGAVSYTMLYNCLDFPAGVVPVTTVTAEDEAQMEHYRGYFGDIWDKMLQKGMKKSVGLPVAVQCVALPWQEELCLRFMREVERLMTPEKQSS
Test: FAAH inhibition enzyme assay, human enzyme (COS-7 lysate)
Format: biochemical
Conditions: Table 3
Description: (§2) The purified recombinant rFAAH was used in the inhibition assays unless otherwise indicated.
(§3) The ^14C-labeled oleamide (substrate) and oleic acid (product) were extracted with EtOAc and analyzed by TLC.

Ki [µM]	Compound
0.037	O=C(O)c1cccc(-c2nnc(C(=O)CCCCCCc3ccccc3)o2)n1 [8g]
0.0055	O=C(CCCCCCc1ccccc1)c1nnn(-c2ccccn2)n1 [15b, 7-Phenyl-1-(2-(pyridin-2-yl)-2H-tetrazol-5-yl)-heptan-1-one]

Molecular target: T3, FAAH (Mus musculus, UniProt O08914)
T3 construct: with FP-Rh in brain and heart membrane proteome; from tissue; host or cells: brain and heart membrane proteome
T3 sequence (O08914 1-579): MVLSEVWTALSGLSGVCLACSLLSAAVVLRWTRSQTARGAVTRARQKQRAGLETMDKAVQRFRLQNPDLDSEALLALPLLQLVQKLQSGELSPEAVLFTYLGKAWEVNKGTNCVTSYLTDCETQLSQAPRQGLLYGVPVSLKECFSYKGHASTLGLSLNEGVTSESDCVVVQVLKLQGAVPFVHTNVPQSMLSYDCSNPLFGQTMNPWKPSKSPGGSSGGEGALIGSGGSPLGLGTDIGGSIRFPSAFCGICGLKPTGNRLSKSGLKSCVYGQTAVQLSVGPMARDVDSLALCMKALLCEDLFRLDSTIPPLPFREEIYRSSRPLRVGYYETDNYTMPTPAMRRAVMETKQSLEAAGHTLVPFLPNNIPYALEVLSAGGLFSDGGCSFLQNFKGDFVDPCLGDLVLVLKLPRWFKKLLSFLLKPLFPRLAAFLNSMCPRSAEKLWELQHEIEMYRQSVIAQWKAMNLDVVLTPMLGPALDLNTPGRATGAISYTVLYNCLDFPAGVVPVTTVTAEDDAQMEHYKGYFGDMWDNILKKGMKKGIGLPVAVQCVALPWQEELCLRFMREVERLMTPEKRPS
Test: Activity based protein profiling (proteome-wide selectivity screening, FP-Rh), FAAH
Format: biochemical
Conditions: Table 4
Description: as §1

Compound	IC50 [nM]
O=C(CCCCCCc1ccccc1)c1ncc(-c2ccco2)o1 [7c]	80
COC(=O)c1nc(C(=O)CCCCCCc2ccccc2)no1 [10h, Methyl 3-(7-Phenylheptanoyl)-1,2,4-oxadiazole-5-carboxylate]	10
O=C(CCCCCCc1ccccc1)c1cccnn1 [13a, 7-Phenyl-1-(pyridazin-3-yl)-heptan-1-one]	3000
O=C(CCCCCCc1ccccc1)c1ncon1 [10a, 1-(1,2,4-Oxadiazol-3-yl)-7-phenylheptan-1-one]	500

Next, values leading:

IC50 [nM]	Compound
> 100000	O=C(CCCCCCc1ccccc1)c1nccs1 [11a, 7-Phenyl-1-(thiazol-2-yl)-heptan-1-one]
4	O=C(CCCCCCc1ccccc1)c1ncno1 [9a, 1-(1,2,4-Oxadiazol-5-yl)-7-phenylheptan-1-one]
3	COC(=O)c1cccc(-c2noc(C(=O)CCCCCCc3ccccc3)n2)n1 [9f, Methyl 6-(5-(7-Phenylheptanoyl)-1,2,4-oxadiazol-3-yl)-picolinate]

Molecular target: T4, triacylglycerol hydrolase (TGH) (Mus musculus, UniProt Q8VCT4)
T4 construct: with FP-Rh in brain and heart membrane proteome; from tissue; host or cells: brain and heart membrane proteome
T4 sequence (Q8VCT4 19-565): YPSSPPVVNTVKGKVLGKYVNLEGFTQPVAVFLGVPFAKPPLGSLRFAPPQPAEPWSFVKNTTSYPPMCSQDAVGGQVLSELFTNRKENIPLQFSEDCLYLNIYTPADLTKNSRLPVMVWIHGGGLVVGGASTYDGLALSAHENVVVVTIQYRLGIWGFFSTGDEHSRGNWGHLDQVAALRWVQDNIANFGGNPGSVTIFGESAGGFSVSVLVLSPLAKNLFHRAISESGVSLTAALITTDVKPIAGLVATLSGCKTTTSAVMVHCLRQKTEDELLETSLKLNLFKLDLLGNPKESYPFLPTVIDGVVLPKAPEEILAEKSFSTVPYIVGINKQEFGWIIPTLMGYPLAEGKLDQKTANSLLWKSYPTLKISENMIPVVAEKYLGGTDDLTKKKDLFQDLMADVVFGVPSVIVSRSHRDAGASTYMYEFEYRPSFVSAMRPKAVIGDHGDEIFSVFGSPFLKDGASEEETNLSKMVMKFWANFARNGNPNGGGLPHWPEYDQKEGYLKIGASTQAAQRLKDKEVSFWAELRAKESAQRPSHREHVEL
Test: Activity based protein profiling (proteome-wide selectivity screening, FP-Rh), TGH
Format: biochemical
Conditions: Table 4; activity based protein profiling
Description: as §1

Compound	IC50 [nM]
O=C(O)c1cccc(-c2nnc(C(=O)CCCCCCc3ccccc3)o2)n1 [8g]	40000
O=C(CCCCCCc1ccccc1)c1ncc(-c2ccco2)o1 [7c]	300
COC(=O)c1nc(C(=O)CCCCCCc2ccccc2)no1 [10h, Methyl 3-(7-Phenylheptanoyl)-1,2,4-oxadiazole-5-carboxylate]	200
O=C(CCCCCCc1ccccc1)c1cccnn1 [13a, 7-Phenyl-1-(pyridazin-3-yl)-heptan-1-one]	5000
O=C(CCCCCCc1ccccc1)c1ncon1 [10a, 1-(1,2,4-Oxadiazol-3-yl)-7-phenylheptan-1-one]	10
O=C(CCCCCCc1ccccc1)c1nnn(-c2ccccn2)n1 [15b, 7-Phenyl-1-(2-(pyridin-2-yl)-2H-tetrazol-5-yl)-heptan-1-one]	120

The next lines start with the values.

IC50 [nM]	Compound
0.7	O=C(CCCCCCc1ccccc1)c1ncno1 [9a, 1-(1,2,4-Oxadiazol-5-yl)-7-phenylheptan-1-one]
150	COC(=O)c1cccc(-c2noc(C(=O)CCCCCCc3ccccc3)n2)n1 [9f, Methyl 6-(5-(7-Phenylheptanoyl)-1,2,4-oxadiazol-3-yl)-picolinate]

Same assay, conditions: Table 4; ratio TGH IC50 / FAAH IC50 (fold selectivity for FAAH)

Compound	TGH selectivity (value in parentheses)
O=C(CCCCCCc1ccccc1)c1ncc(-c2ccco2)o1 [7c]	4
COC(=O)c1nc(C(=O)CCCCCCc2ccccc2)no1 [10h, Methyl 3-(7-Phenylheptanoyl)-1,2,4-oxadiazole-5-carboxylate]	20
O=C(CCCCCCc1ccccc1)c1cccnn1 [13a, 7-Phenyl-1-(pyridazin-3-yl)-heptan-1-one]	1
O=C(CCCCCCc1ccccc1)c1ncon1 [10a, 1-(1,2,4-Oxadiazol-3-yl)-7-phenylheptan-1-one]	0.02

More lines, now with the values ahead:

TGH selectivity (value in parentheses)	Compound
0.18	O=C(CCCCCCc1ccccc1)c1ncno1 [9a, 1-(1,2,4-Oxadiazol-5-yl)-7-phenylheptan-1-one]
50	COC(=O)c1cccc(-c2noc(C(=O)CCCCCCc3ccccc3)n2)n1 [9f, Methyl 6-(5-(7-Phenylheptanoyl)-1,2,4-oxadiazol-3-yl)-picolinate]

Molecular target: T5, purified recombinant rat FAAH (Rattus norvegicus, UniProt P97612)
T5 construct: The truncated rat FAAH (rFAAH) was expressed in E. coli and purified as described; made in house; host or cells: Escherichia coli
T5 sequence (P97612 30-579 limits assumed): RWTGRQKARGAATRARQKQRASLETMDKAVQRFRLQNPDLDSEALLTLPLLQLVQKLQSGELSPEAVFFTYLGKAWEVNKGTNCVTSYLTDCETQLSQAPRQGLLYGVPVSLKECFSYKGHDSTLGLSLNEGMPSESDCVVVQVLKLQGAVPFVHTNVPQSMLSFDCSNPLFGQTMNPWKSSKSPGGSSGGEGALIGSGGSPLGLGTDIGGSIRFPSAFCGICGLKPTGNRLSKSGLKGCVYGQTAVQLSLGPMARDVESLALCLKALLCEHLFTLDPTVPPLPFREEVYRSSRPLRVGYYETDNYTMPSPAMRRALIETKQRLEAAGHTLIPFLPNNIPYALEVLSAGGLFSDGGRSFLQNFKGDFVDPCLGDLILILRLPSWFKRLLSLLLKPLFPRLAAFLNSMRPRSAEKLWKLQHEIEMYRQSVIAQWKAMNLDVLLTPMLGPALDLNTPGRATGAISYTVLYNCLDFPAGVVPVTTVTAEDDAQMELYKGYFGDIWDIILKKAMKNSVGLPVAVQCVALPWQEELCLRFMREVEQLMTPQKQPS
Test: FAAH inhibition enzyme assay (14C-oleamide hydrolysis, Dixon plot), rat enzyme
Format: biochemical
Conditions: Table 2; rat FAAH, pH 9 assay conditions; read-out: Ki
Description: as §2, §3

Compound	Ki [nM]
O=C(CCCCCCc1ccccc1)c1ncc(-c2ccco2)o1 [7c]	12
O=C(CCCCCCc1ccccc1)c1cccnn1 [13a, 7-Phenyl-1-(pyridazin-3-yl)-heptan-1-one]	140
O=C(CCCCCCc1ccccc1)c1ncon1 [10a, 1-(1,2,4-Oxadiazol-3-yl)-7-phenylheptan-1-one]	7

Further lines, results first:

Ki [nM]	Compound
800	O=C(CCCCCCc1ccccc1)c1nccs1 [11a, 7-Phenyl-1-(thiazol-2-yl)-heptan-1-one]
1	O=C(CCCCCCc1ccccc1)c1ncno1 [9a, 1-(1,2,4-Oxadiazol-5-yl)-7-phenylheptan-1-one]
3	COC(=O)c1cccc(-c2noc(C(=O)CCCCCCc3ccccc3)n2)n1 [9f, Methyl 6-(5-(7-Phenylheptanoyl)-1,2,4-oxadiazol-3-yl)-picolinate]

Same assay, conditions: Table 4; read-out: FAAH Ki

Compound	Ki [nM]
O=C(CCCCCCc1ccccc1)c1ncc(-c2ccco2)o1 [7c]	12
COC(=O)c1nc(C(=O)CCCCCCc2ccccc2)no1 [10h, Methyl 3-(7-Phenylheptanoyl)-1,2,4-oxadiazole-5-carboxylate]	7
O=C(CCCCCCc1ccccc1)c1cccnn1 [13a, 7-Phenyl-1-(pyridazin-3-yl)-heptan-1-one]	140
O=C(CCCCCCc1ccccc1)c1ncon1 [10a, 1-(1,2,4-Oxadiazol-3-yl)-7-phenylheptan-1-one]	7

The remaining lines, values ahead:

Ki [nM]	Compound
800	O=C(CCCCCCc1ccccc1)c1nccs1 [11a, 7-Phenyl-1-(thiazol-2-yl)-heptan-1-one]
1	O=C(CCCCCCc1ccccc1)c1ncno1 [9a, 1-(1,2,4-Oxadiazol-5-yl)-7-phenylheptan-1-one]
3	COC(=O)c1cccc(-c2noc(C(=O)CCCCCCc3ccccc3)n2)n1 [9f, Methyl 6-(5-(7-Phenylheptanoyl)-1,2,4-oxadiazol-3-yl)-picolinate]

Same assay, conditions: rat FAAH, pH 9; read-out: Ki

Ki [nM]	Compound
< 10	COC(=O)c1nc(C(=O)CCCCCCc2ccccc2)no1 [10h, Methyl 3-(7-Phenylheptanoyl)-1,2,4-oxadiazole-5-carboxylate]
